From PubChem BioAssay (NCI)
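Exposure lasted 48 hours, with cells grown in 96-well plates and compounds tested at five concentrations. The concentration for full growth arrest is given as TGI.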

Key:
Assay in all cases: NCI tumour cell line growth inhibition, 48 h
[1] = tested on: DMS 114 small cell lung
[2] = tested on: HOP-18 NSCLC
[3] = tested on: XF 498 CNS
[4] = tested on: DMS 273 small cell lung
[5] = tested on: SN12K1 renal
[6] = tested on: P388 leukemia
[7] = tested on: LXFL 529 NSCLC
[8] = tested on: RXF-631 renal

Row | Structure (SMILES) | TGI [1] [µM] | TGI [2] [µM] | TGI [3] [µM] | TGI [4] [µM] | TGI [5] [µM] | TGI [6] [µM] | TGI [7] [µM] | TGI [8] [µM]
1 | CCCCCOc1ccc(C=Nc2ccc(CCc3ccc(N=Cc4ccc(OCCCCC)cc4)cc3)cc2)cc1 | > 100 | > 100 | > 100 | > 100 | > 100 | > 100 |  | 
2 | c1ccc(-c2csc3c4ccccc4c4ccccc4[n+]23)cc1 | 4.89 | 49.6 | 5.46 | 4.58 |  |  | 16.6 | 
3 | Cc1ccc(C)c(NC(=O)C(=O)C(C(=O)c2ccc3ccccc3c2)C2OC(=O)c3ccccc32)c1 (stereo not given) | 26.3 |  | 44 | > 100 |  |  | 25.1 | 65.6
4 | C1=C(c2ccccc2)SC(N2CCCCC2)S1 (stereo not given) | > 100 |  | > 100 | > 100 |  |  | > 100 | 
